Assay results reported in US7767665B2, “1,3-benzothiazinone derivatives and use thereof” (Takeda Pharmaceutical Company Limited, priority 2001, dated 2010).

How the values were obtained:
[1] = system: primary heart muscle cells from newborn rats; experiment: Inhibitory activity on heart muscle cell apoptosis (serum-free culture, viable cell number by WST-8); assay type: cell-based, Wister rats; conditions: Rattus norvegicus, 96 h; mean of three independent experiments; concentration required to increase the mean viable cell number by 50% as compared with that in the absence of test compounds; serum-free Medium 199, 4 days
Excerpt: Inhibitory Activity on Heart Muscle Cell Apoptosis
Newborn rats (within 1 day afterbirth) were obtained from pregnant Wister rats purchased from Charles River, anesthetized under ether, and sterilized with 70% ethanol, and then their hearts were excised with tweezers. The excised hearts were washed with a phosphate-buffered physiological saline (T900; Takara) and cut into pieces with surgical scissors. These tissue pieces were washed 4 to 5 times with a phosphate-buffered physiological saline to remove a majority of blood-derived non-heart muscle cells. To the tissue pieces derived from 10 newborns, 5 ml of enzyme solution (1.25 mg trypsin (Difco) and 0.25 mg collagenase (Sigma) per ml of phosphate-buffered saline (PBS)) was added and the mixture was stirred with a stirrer at 37° C. for 15 minutes. Another 2.5 ml enzyme solution was then added twice repeatedly at a 15-minutes interval. Then, Medium 199 (Gibco) containing 10% fetal calf serum (Biowiker) was added in a half volume of the enzyme solution to terminate the enzyme reaction. The cells were filtered through a Cell Strainer (Falcon) and then centrifuged at 400×g for 5 minutes, whereby the cells were collected.
The cells thus collected from 10 newborns were suspended in 50 ml Medium 199 containing 10% fetal calf serum, plated onto 100 mm Petri dishes (Iwaki) in a volume of 10 ml/dish and cultured for 1 hour in a CO2 incubator set at 5% CO2 and 37° C. The cells were then recovered, filtered through a Cell Strainer and centrifuged at 400×g for 5 minutes to collect the primary heart muscle cells derived from newborn rats.
Then, the heart muscle cells from 10 newborn rats were suspended in 2 ml low-isotonic solution (prepared by dissolving 8.29 g NH4Cl, 1.0 g KHCO3, 37 mg EDTA/2Na (ethylenediaminetetraacetic acid disodium) (Dojindo) in 1 L of water) and left for 3 minutes to disrupt erythrocytes. After 10 ml Medium 199 containing 10% fetal calf serum was added thereto, the primary heart muscle cells from newborn rats were collected by centrifugation at 400×g for 5 minutes. The cells were suspended in Medium 199 containing 10% fetal calf serum and then filtered through a cell strainer. After 0.3% trypan blue was added to, and mildly mixed with, an aliquot of the resulting cell suspension, the number of heart muscle cells was counted on an erythrocyte counting plate.
The primary heart muscle cells from newborn rats were suspended at a density of 3×10^6 cells/ml in Medium 199 containing 10% fetal calf serum, put onto a 96-well plate in a volume of 0.1 ml/well, and then cultured in a CO2 incubator set at 5% CO2 and 37° C. After the plate was stirred with a micromixer (Taiyo Kagaku Kogyo), the medium was exchanged 3 times with serum-free Medium 199, and then test compounds were added thereto. The cells were cultured for additional 4 days to induce apoptosis. Then, fetal calf serum was added thereto at a concentration of 10%, and the cells were further cultured for about 17 hours in a CO2 incubator set at 5% CO2 and 37° C. Finally, the number of viable cells was determined with Cell Counting Kit (Dojindo) using WST-8 (2-(2-methoxy-4-nitrophenyl)-3-(4-nitrophenyl)-5-(2,4-disulfophenyl)-2H-tetrazolium, monosodium salt) as the coloring substrate to determine the inhibition of the heart muscle cell apoptosis.
The above-mentioned experiment was triplicated in an independent manner.
The Mean minimal effective concentration (±SD) was shown for each test compound (Compounds 1 to 5 obtained in Reference Examples) in Table 1. In Table 1, the minimal effective concentration is defined as the concentration required to increase the mean viable cell number by 50% as compared with that in the absence of test compounds.

melting point	SMILES	minimal effective concentration [1] [µM]
194 to 194.3 °C	CCN(CC)C(=O)c1cccc(-c2nc(=O)c3ccccc3s2)n1 [Example 105, N,N-Diethyl-6-(4-oxo-4H-1,3-benzothiazin-2-yl)-2-pyridinecarboxamide]	0.028
145.1 to 145.4 °C	CC(C)(C)OC(=O)NCCCCCCNC(=O)c1cccc(-c2nc(=O)c3ccccc3s2)n1 [Example 106, tert-Butyl [[[6-(4-oxo-4H-1,3-benzothiazin-2-yl)-2-pyridyl]carbonyl]amino]hexylcarbamate]	0.052
191.5 to 192.9 °C	CN(C(=O)c1cccs1)c1cccc(-c2nc(=O)c3ccccc3s2)n1 [Example 111, N-Methyl-N-[6-(4-oxo-4H-1,3-benzothiazin-2-yl)-2-pyridyl]-2-thiophenecarboxamide]	0.037
186.2 to 187.2 °C	CN(C(=O)c1ccco1)c1cccc(-c2nc(=O)c3ccccc3s2)n1 [Example 112, N-Methyl-N-[6-(4-oxo-4H-1,3-benzothiazin-2-yl)-2-pyridyl]-2-furamide]	0.051
234 to 235.4 °C	CN(C(=O)c1ccccc1)c1cccc(-c2nc(=O)c3ccccc3s2)n1 [Example 113, N-Methyl-N-[6-(4-oxo-4H-1,3-benzothiazin-2-yl)-2-pyridyl]benzamide]	0.022
184.4 to 185.8 °C	CN(C(=O)C1CCCCC1)c1cccc(-c2nc(=O)c3ccccc3s2)n1 [Example 115, N-methyl-N-[6-(4-oxo-4H-1,3-benzothiazin-2-yl)-2-pyridyl]cyclohexanecarboxamide]	0.052
161.3 to 162 °C	CCSc1cccc(-c2nc(=O)c3ccccc3s2)n1 [Example 126, 2-[6-(Ethylthio)-2-pyridyl]-4H-1,3-benzothiazine-4-one]	0.032
185.4 to 185.8 °C	CC(C)Sc1cccc(-c2nc(=O)c3ccccc3s2)n1 [Example 127, 2-[6-(Isopropylthio)-2-pyridyl]-4H-1,3-benzothiazine-4-one]	0.04
152.9 to 153.8 °C	CC(C)(C)Sc1cccc(-c2nc(=O)c3ccccc3s2)n1 [Example 128, 2-[6-(tert-Butylthio)-2-pyridyl]-4H-1,3-benzothiazine-4-one]	0.081
154.8 °C (dec.)	CN(C)CCSc1cccc(-c2nc(=O)c3ccccc3s2)n1 [Example 133, 2-{[6-[2-(N,N-Dimethylamino)ethyl]thio]-2-pyridyl}-4H-1,3-benzothiazine-4-one]	0.06
179.5 to 180 °C	CCOc1cccc(-c2nc(=O)c3ccccc3s2)n1 [Example 134, 2-(6-Ethoxy-2-pyridyl)-4H-1,3-benzothiazine-4-one]	0.095
